The values that follow come from patent publication US12115178B2, “Acylated active agents and methods of their use for the treatment of autoimmune disorders” (Flagship Pioneering Innovations V, Inc., priority 2018, dated 2024).

Structures can show the parent of a compound that is named as a salt.

One series has as its system naïve CD4+ T cells. Description: Human regulatory T cell differentiation assay. The following applies: 6 days. Format: cell-based. The procedure: Peripheral blood mononuclear cells (PBMCs) from whole blood donated by health volunteers were separated by Ficoll-Paque gradient centrifugation and naïve CD4^+ T cells were subsequently isolated using magnet beads (EasySep™ Human Naïve CD4^+ T Cell Isolation Kit, Cambridge, MA). For regulatory T cell (Treg) differentiation assay, naïve CD4^+ T cells were cultured (1-10×10^4 cells) in CTS OpTmizer medium for 6 days and stimulated with 5 ng/ml TGF-β, 100 U/ml IL-2, and ImmunoCult™ Human […] T Cell Activator; Stemcell #10990) with/without our Compounds. Cell viability was determined using a viability dye (eBioscience Fixable Viability Dye eFluor 780: ThermoFisher 65-0865-14) at 1:500 dilution. The cells were gated for Treg, defined as Live, CD11c^−, CD14^−, CD19^−, CD8^−, CD4^+, CD3^+, CD25^+, FOXP3^+. Percent (%) Tregs were calculated as percentage of CD4^+, CD25^+, FOXP3^+ cells over total CD4 T cells. Statistical analysis was performed with GraphPad Prism Software Using One-Way ANOVA.

The nature of series [1]: Assay 2. Stability in Simulated Intestinal Fluid (SIF). The series is classed as in vitro ADME. The conditions noted are these: SIF pH 6.7 with pancreatin, 1 μM, 37° C. Summed up:
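Compounds at 1 µM (from 1 mM DMSO stock) were incubated at 37 °C with agitation in simulated intestinal fluid: FaSSIF in pH 6.7 phosphate buffer with pancreatin. Aliquots taken from T0 onward were quenched with acetonitrile and analyzed by LC/MS for degradation rate.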

Series [2] has as its system type II collagen arthritis. Description: In vivo rheumatoid arthritis model (semi-established type II collagen arthritis). More on the design: species or system Lewis rats. The following applies: for Mean Ankle Diameter AUC (mm*day) / Mean Ankle Periosteal Bone width (um) / Mean Knee Inflammation score (0-5) / Mean Terminal hind paw weights / Mean body weight change, day −1 to 21 (%) / Relative Spleen to Body Weight (Mean) / Mean Ankle Bone Resorption score (0-5) / Mean Ankle Cartilage Damage score (0-5) / Mean Ankle Pannus score (0-5) / Mean Ankle Periosteal Bone score (0-5) / Mean Ankle inflammation score (0-5) / Mean Knee Bone Resorption score (0-5) / Mean Knee Cartilage Damage score (0-5) / Mean Knee Pannus score (0-5) / Serum IgG: rats; for Mean Ankle Bone Resorption score (0-5) / Mean Ankle Cartilage Damage score (0-5) / Mean Ankle Pannus score (0-5) / Mean Ankle Periosteal Bone score (0-5) / Mean Ankle inflammation score (0-5) / Mean Knee Bone Resorption score (0-5) / Mean Knee Cartilage Damage score (0-5) / Mean Knee Pannus score (0-5): 0 = normal, 5 = severe; for Serum IgG: terminal serum ELISA for anti-type II collagen antibodies. The procedure:
A study was conducted to determine the efficacy of test articles dosed by the oral (PO) route for inhibition of the inflammation (paw swelling), cartilage destruction, and bone resorption that occurs in semi-established type II collagen arthritis in female Lewis rats. Rats (10 per group) were injected intradermally (ID) with porcine type II collagen to induce arthritis; one group of rats (4 per group) served as vehicle-treated naïve controls. […] Positive controls were treated PO, BID with the reference compound Tofacitinib citrate (10 mg/kg). The rats were euthanized for necropsy on study day 21 (animals #1-5 in each group, animals #1-2 in naïve group) or 22 (animals #6-10 in each group, animals #3-4 in naïve group). Efficacy evaluation was based on animal body weights (Table 9), daily ankle caliper measurements (FIG. 4), ankle diameter expressed as area under the curve (AUC) (Table 10), terminal hind paw weights (Table 11), histopathologic evaluation of hind paws (Ankle Inflammation score: Table 12, Ankle Pannus score: Table 13, Ankle Cartilage Damage score: Table 14, Ankle Bone Resorption score: Table 15, Ankle Periosteal Bone score: Table 16, Ankle Periosteal Bone Width: Table 17) and knees (Knee Inflammation score: Table 18, Knee Pannus score: Table 19, Knee Cartilage Damage score: Table 20, Knee Bone Resorption score: Table 21), and relative spleen to body weight ratio (Table 22). Terminal serum was analyzed by enzyme-linked immunosorbent assay (ELISA) for anti-type II collagen antibodies (IgG) (Table 23). […] Statistics were conducted using ordinary one-way ANOVA with Dunnett's multiple comparison correction in GraphPad Prism.
Background: An ELISA detects its analyte on a solid surface through an enzyme-linked reagent.

Series [3] can be described thus: Assay 3. In vitro Colonic Material Stability Assay. The conditions noted are these: colonic material slurry, anaerobic, 1 or 10 μM. The series is classed as in vitro ADME.

Consider `CC(=O)O` [Acetic acid, acetic acid], for which the “Cell viability % DMSO” value in the series with naïve CD4+ T cells (1 mM) and in the series with naïve CD4+ T cells (3 mM) was “= (90%> <110%: =)” throughout.

Regarding `CCCC(=O)Oc1cc(OC(=O)CCC)c2c(=O)c(OC(=O)CCC)c(-c3ccc(OC(=O)CCC)c(OC(=O)CCC)c3)oc2c1` [Compound 5, [2-butanoyloxy-4-[3,5,7-tri(butanoyloxy)-4-oxo-chromen-2-yl]phenyl]butanoate], in series [1], the “Assay 2 (SIF) (% @ Remaining 4 hours)” value is reported as “B (25-75% of the tested compound remaining)”. In series [2] (100 mg/kg PO BID), the “Mean Ankle Diameter AUC (mm*day)” value turned out to be 89.38 mm*day, the “Mean Ankle Periosteal Bone width (um)” value was 510.30 um, the “Mean Knee Inflammation score (0-5)” value came out at 5.23 and the “Mean Terminal hind paw weights” value was determined as 2.3990 g. For the same compound, in series [2] (100 mg/kg PO BID), the “Mean body weight change, day −1 to 21 (%)” value is −7.1%; the “Relative Spleen to Body Weight (Mean)” value was determined as 0.2453; the “Mean Ankle Bone Resorption score (0-5)” value was determined as 2.53; the “Mean Ankle Cartilage Damage score (0-5)” value stood at 3.55. For the same compound, in series [2] (100 mg/kg PO BID), the “Mean Ankle Pannus score (0-5)” value worked out at 2.53, the “Mean Ankle Periosteal Bone score (0-5)” value was 2.68, the “Mean Ankle inflammation score (0-5)” value was 2.3990 and the “Mean Knee Bone Resorption score (0-5)” value is 2.08. In addition, in series [2] (100 mg/kg PO BID), the “Mean Knee Cartilage Damage score (0-5)” value is on record as 2.93, the “Mean Knee Pannus score (0-5)” value turned out to be 2.08 and the “Serum IgG” value amounted to 5937.67 µg/mL. Further, in series [2] (500 mg/kg PO BID), the “Mean Ankle Diameter AUC (mm*day)” value was 93.57 mm*day, the “Mean Ankle Periosteal Bone width (um)” value amounted to 699.30 um, the “Mean Knee Inflammation score (0-5)” value was 5.65 and the “Mean Terminal hind paw weights” value is reported as 2.3994 g. In addition, in series [2] (500 mg/kg PO BID), the “Mean body weight change, day −1 to 21 (%)” value is −10.1%; the “Relative Spleen to Body Weight (Mean)” value amounted to 0.2534; the “Mean Ankle Bone Resorption score (0-5)” value came out at 3.33; the “Mean Ankle Cartilage Damage score (0-5)” value is listed as 4.45. Moreover, in series [2] (500 mg/kg PO BID), the “Mean Ankle Pannus score (0-5)” value is reported as 3.33, the “Mean Ankle Periosteal Bone score (0-5)” value stood at 3.70, the “Mean Ankle inflammation score (0-5)” value is listed as 2.3994 and the “Mean Knee Bone Resorption score (0-5)” value amounted to 2.65. In series [2] (500 mg/kg PO BID), the “Mean Knee Cartilage Damage score (0-5)” value was 4.00, the “Mean Knee Pannus score (0-5)” value is reported as 2.65 and the “Serum IgG” value is 5350.41 µg/mL. The “effects on spleen weights relative to body weight, ankle diameter AUC, ankle pannus score, ankle bone resorption score, and ankle periosteal bone score” value in series [2] (rat collagen arthritis, PO BID) is “significant beneficial effects”.

For `C[C@@H]1CCN(C(=O)CC#N)C[C@@H]1N(C)c1ncnc2[nH]ccc12` [Tofacitinib citrate, reference compound], in series [2] (10 mg/kg PO BID), the “Mean Ankle Diameter AUC (mm*day)” value worked out at 73.82 mm*day, the “Mean Ankle Periosteal Bone width (um)” value is reported as 0.00 um, the “Mean Knee Inflammation score (0-5)” value is given as 0.10 and the “Mean Terminal hind paw weights” value is given as 1.4321 g. Moreover, in series [2] (10 mg/kg PO BID), the “Mean body weight change, day −1 to 21 (%)” value came to 20.2%; the “Relative Spleen to Body Weight (Mean)” value is given as 0.1796; the “Mean Ankle Bone Resorption score (0-5)” value is 0.00; the “Mean Ankle Cartilage Damage score (0-5)” value is recorded as 0.00. Moreover, in series [2] (10 mg/kg PO BID), the “Mean Ankle Pannus score (0-5)” value came to 0.00, the “Mean Ankle Periosteal Bone score (0-5)” value was 0.00, the “Mean Ankle inflammation score (0-5)” value stood at 1.4321 and the “Mean Knee Bone Resorption score (0-5)” value was determined as 0.00. Further, in series [2] (10 mg/kg PO BID), the “Mean Knee Cartilage Damage score (0-5)” value stood at 0.00, the “Mean Knee Pannus score (0-5)” value was found to be 0.00 and the “Serum IgG” value was determined as 2524.70 µg/mL.

Turning to `CCCC(=O)Oc1cc(C(=O)O)cc(OC(=O)CCC)c1OC(=O)CCC` [Compound 45, 3,4,5-tris(butyryloxy)benzoic acid], the “Assay 2 (SIF) (% @ Remaining 4 hours)” value in series [1] is reported as “A (<25% of the tested compound remaining)”. Further, in series [3], the “Assay 3 (% Remaining at 24 h)” value is given as “A (<25% of the tested compound remaining)”. In series [2] (500 mg/kg PO BID), the “Mean Ankle Diameter AUC (mm*day)” value came out at 94.20 mm*day, the “Mean Ankle Periosteal Bone width (um)” value is recorded as 630.00 um, the “Mean Knee Inflammation score (0-5)” value is 5.25 and the “Mean Terminal hind paw weights” value came out at 2.3988 g. Besides, in series [2] (500 mg/kg PO BID), the “Mean body weight change, day −1 to 21 (%)” value is given as −6.3%; the “Relative Spleen to Body Weight (Mean)” value is given as 0.2534; the “Mean Ankle Bone Resorption score (0-5)” value is recorded as 3.48; the “Mean Ankle Cartilage Damage score (0-5)” value is listed as 4.20. Further, in series [2] (500 mg/kg PO BID), the “Mean Ankle Pannus score (0-5)” value is listed as 3.48, the “Mean Ankle Periosteal Bone score (0-5)” value is 3.38, the “Mean Ankle inflammation score (0-5)” value stood at 2.3988 and the “Mean Knee Bone Resorption score (0-5)” value was 2.40. Moreover, in series [2] (500 mg/kg PO BID), the “Mean Knee Cartilage Damage score (0-5)” value is 3.63, the “Mean Knee Pannus score (0-5)” value was 2.48 and the “Serum IgG” value turned out to be 5431.64 µg/mL.

On to `C[C@@H](O)CCO` [(R)-1,3-Butanediol], for which the “Cell viability % DMSO” value in the series on naïve CD4+ T cells (100 uM) and in the series on naïve CD4+ T cells (0.5 mM) was “= (90%> <110%: =)” each time.
